According to PMC6591251, “Discovery of potent necroptosis inhibitors targeting RIPK1 kinase activity for the treatment of inflammatory disorder and cancer metastasis” (Cell Death & Disease, 2019):

Experiments:
Assay in all cases: RBC kinase panel
Type in all cases: biochemical
Details in all cases: ATP 10 μM, Data1, Data2
MEK1 = target: T1, MEK1 (Homo sapiens, UniProt Q02750)
T1 construct: purchased Reaction Biology Corporation
Outline: (§1)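 ATP was held at 10 μM in all reactions while the compound, at 1 μM, was profiled against 369 human kinases; each measurement was run twice.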

MEKK3 = target: T2, MEKK3 (Homo sapiens, UniProt Q99759)
T2 construct: purchased Reaction Biology Corporation
Outline: as §1

PLK4/SAK = target: T3, PLK4/SAK (Homo sapiens, UniProt O00444)
T3 construct: purchased Reaction Biology Corporation
Outline: as §1

TNK1 = target: T4, TNK1 (Homo sapiens, UniProt Q13470)
T4 construct: purchased Reaction Biology Corporation
Outline: as §1

RSK4 = target: T5, RSK4 (Homo sapiens, UniProt Q9UK32)
T5 construct: purchased Reaction Biology Corporation
Outline: as §1

BLK = target: T6, BLK (Homo sapiens, UniProt P51451)
T6 construct: purchased Reaction Biology Corporation
Outline: as §1

CK1d = target: T7, CK1d (Homo sapiens, UniProt P48730)
T7 construct: purchased Reaction Biology Corporation
Outline: as §1

MEK5 = target: T8, MEK5 (Homo sapiens, UniProt Q13163)
T8 construct: purchased Reaction Biology Corporation
Outline: as §1

BRSK1 = target: T9, BRSK1 (Homo sapiens, UniProt Q8TDC3)
T9 construct: purchased Reaction Biology Corporation
Outline: as §1

MNK2 = target: T10, MNK2 (Homo sapiens, UniProt Q9HBH9)
T10 construct: purchased Reaction Biology Corporation
Outline: as §1

CDK17/cyclin Y (PCTK2) = target: T11, CDK17/cyclin Y (PCTK2) (Homo sapiens, UniProt Q00537)
T11 construct: purchased Reaction Biology Corporation
Outline: as §1

RSK1 = target: T12, RSK1 (Homo sapiens, UniProt Q15418)
T12 construct: purchased Reaction Biology Corporation
Outline: as §1

TTBK2 = target: T13, TTBK2 (Homo sapiens, UniProt Q6IQ55)
T13 construct: purchased Reaction Biology Corporation
Outline: as §1

MRCKa/CDC42BPA = target: T14, MRCKa/CDC42BPA (Homo sapiens, UniProt Q5VT25)
T14 construct: purchased Reaction Biology Corporation
Outline: as §1

TBK1 = target: T15, TBK1 (Homo sapiens, UniProt Q9UHD2)
T15 construct: purchased Reaction Biology Corporation
Outline: as §1

AXL = target: T16, AXL (Homo sapiens, UniProt P30530)
T16 construct: purchased Reaction Biology Corporation
Outline: as §1

DYRK3 = target: T17, DYRK3 (Homo sapiens, UniProt O43781)
T17 construct: purchased Reaction Biology Corporation
Outline: as §1

GSK3a = target: T18, GSK3a (Homo sapiens, UniProt P49840)
T18 construct: purchased Reaction Biology Corporation
Outline: as §1

PAK2 = target: T19, PAK2 (Homo sapiens, UniProt Q13177)
T19 construct: purchased Reaction Biology Corporation
Outline: as §1

STK21/CIT = target: T20, STK21/CIT (Homo sapiens, UniProt O14578)
T20 construct: purchased Reaction Biology Corporation
Outline: as §1

LCK = target: T21, LCK (Homo sapiens, UniProt P06239)
T21 construct: purchased Reaction Biology Corporation
Outline: as §1

FLT1/VEGFR1 = target: T22, FLT1/VEGFR1 (Homo sapiens, UniProt P17948)
T22 construct: purchased Reaction Biology Corporation
Outline: as §1

ARK5/NUAK1 = target: T23, ARK5/NUAK1 (Homo sapiens, UniProt O60285)
T23 construct: purchased Reaction Biology Corporation
Outline: as §1

MLK1/MAP3K9 = target: T24, MLK1/MAP3K9 (Homo sapiens, UniProt P80192)
T24 construct: purchased Reaction Biology Corporation
Outline: as §1

PKAcb = target: T25, PKAcb (Homo sapiens, UniProt P22694)
T25 construct: purchased Reaction Biology Corporation
Outline: as §1

IKKe/IKBKE = target: T26, IKKe/IKBKE (Homo sapiens, UniProt Q14164)
T26 construct: purchased Reaction Biology Corporation
Outline: as §1

LOK/STK10 = target: T27, LOK/STK10 (Homo sapiens, UniProt O94804)
T27 construct: purchased Reaction Biology Corporation
Outline: as §1

RSK3 = target: T28, RSK3 (Homo sapiens, UniProt Q15349)
T28 construct: purchased Reaction Biology Corporation
Outline: as §1

KSR1 = target: T29, KSR1 (Homo sapiens, UniProt Q8IVT5)
T29 construct: purchased Reaction Biology Corporation
Outline: as §1

P38b/MAPK11 = target: T30, P38b/MAPK11 (Homo sapiens, UniProt Q15759)
T30 construct: purchased Reaction Biology Corporation
Outline: as §1

BTK = target: T31, BTK (Homo sapiens, UniProt Q06187)
T31 construct: purchased Reaction Biology Corporation
Outline: as §1

WNK3 = target: T32, WNK3 (Homo sapiens, UniProt Q9BYP7)
T32 construct: purchased Reaction Biology Corporation
Outline: as §1

HIPK3 = target: T33, HIPK3 (Homo sapiens, UniProt Q9H422)
T33 construct: purchased Reaction Biology Corporation
Outline: as §1

T32 sequence (Q9BYP7 whole entry): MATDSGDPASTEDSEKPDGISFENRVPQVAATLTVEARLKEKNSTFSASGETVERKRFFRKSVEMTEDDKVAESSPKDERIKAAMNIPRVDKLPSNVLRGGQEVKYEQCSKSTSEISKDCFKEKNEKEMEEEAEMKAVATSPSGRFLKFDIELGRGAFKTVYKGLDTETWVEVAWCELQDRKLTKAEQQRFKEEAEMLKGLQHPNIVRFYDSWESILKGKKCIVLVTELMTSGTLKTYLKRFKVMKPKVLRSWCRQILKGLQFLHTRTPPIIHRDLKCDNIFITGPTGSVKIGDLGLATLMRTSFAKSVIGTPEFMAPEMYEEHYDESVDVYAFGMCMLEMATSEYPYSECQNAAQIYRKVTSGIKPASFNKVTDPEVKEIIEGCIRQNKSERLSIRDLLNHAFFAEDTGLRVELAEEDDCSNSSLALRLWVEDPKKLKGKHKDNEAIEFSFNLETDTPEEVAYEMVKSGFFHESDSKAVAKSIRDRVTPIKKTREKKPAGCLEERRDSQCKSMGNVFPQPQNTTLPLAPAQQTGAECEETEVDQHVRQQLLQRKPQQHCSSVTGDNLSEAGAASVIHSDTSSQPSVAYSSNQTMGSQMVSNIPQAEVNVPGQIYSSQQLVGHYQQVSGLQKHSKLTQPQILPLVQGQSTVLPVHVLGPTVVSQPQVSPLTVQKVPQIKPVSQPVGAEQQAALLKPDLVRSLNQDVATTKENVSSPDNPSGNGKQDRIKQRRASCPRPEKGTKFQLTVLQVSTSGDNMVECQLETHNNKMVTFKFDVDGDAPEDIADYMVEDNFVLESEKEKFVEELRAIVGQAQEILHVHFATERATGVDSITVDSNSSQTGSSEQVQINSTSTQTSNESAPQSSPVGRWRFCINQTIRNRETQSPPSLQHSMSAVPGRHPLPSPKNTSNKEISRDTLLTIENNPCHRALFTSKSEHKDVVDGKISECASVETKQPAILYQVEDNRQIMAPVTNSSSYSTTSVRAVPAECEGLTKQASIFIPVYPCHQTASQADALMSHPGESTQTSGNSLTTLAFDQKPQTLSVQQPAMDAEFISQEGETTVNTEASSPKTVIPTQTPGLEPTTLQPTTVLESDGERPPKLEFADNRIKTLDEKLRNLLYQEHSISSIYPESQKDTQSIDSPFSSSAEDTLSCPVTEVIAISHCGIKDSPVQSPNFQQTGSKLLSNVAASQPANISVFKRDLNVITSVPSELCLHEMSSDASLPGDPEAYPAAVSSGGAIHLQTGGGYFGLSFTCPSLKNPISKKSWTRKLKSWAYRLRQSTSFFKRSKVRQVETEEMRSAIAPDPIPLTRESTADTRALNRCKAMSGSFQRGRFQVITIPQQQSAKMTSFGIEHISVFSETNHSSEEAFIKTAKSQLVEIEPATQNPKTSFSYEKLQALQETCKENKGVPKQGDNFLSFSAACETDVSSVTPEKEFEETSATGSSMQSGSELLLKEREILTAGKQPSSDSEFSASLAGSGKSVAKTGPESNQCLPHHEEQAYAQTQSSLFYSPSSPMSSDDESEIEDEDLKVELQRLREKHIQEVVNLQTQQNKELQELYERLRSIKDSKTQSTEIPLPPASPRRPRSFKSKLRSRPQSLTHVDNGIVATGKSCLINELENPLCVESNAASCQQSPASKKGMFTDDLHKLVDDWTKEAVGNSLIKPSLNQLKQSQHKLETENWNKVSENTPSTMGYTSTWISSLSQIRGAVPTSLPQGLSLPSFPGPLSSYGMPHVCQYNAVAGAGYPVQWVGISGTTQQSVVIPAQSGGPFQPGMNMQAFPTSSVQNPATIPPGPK
T18 sequence (P49840 whole entry): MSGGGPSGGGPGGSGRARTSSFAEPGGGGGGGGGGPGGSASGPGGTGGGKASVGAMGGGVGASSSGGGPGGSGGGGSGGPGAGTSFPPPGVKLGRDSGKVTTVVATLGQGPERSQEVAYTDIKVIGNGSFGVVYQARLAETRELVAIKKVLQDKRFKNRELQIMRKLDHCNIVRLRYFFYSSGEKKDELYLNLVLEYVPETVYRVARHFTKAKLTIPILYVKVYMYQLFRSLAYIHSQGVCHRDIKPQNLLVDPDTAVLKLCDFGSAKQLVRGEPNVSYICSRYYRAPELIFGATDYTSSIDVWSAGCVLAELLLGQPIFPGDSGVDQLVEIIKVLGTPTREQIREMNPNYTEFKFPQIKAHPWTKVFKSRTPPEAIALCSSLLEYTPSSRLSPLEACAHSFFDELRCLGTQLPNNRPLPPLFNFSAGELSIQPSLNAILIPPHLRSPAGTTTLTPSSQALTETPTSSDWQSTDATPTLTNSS
T11 sequence (Q00537 whole entry): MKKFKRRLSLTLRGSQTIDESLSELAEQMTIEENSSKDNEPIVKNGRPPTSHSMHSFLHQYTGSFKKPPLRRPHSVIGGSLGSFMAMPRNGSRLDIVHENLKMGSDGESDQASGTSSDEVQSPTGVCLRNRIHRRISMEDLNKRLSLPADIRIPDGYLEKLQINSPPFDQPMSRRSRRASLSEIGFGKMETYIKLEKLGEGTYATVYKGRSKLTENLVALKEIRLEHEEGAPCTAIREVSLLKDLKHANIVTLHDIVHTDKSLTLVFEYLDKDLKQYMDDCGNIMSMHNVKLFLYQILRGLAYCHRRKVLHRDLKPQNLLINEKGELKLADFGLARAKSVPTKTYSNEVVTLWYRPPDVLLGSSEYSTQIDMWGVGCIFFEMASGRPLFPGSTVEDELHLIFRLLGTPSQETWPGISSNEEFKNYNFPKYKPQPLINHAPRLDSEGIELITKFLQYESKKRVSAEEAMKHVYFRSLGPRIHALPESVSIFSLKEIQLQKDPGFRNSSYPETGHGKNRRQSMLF
T11 sequence (Q8ND76 whole entry partner): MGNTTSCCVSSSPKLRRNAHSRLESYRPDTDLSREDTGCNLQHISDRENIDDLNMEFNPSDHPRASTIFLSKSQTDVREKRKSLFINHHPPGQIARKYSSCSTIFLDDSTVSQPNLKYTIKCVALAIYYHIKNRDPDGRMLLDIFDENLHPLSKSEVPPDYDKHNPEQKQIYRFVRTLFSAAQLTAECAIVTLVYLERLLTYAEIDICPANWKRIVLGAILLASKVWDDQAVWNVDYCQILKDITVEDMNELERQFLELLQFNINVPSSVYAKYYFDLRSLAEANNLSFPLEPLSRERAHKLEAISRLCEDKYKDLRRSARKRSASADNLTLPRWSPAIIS
T33 sequence (Q9H422 whole entry): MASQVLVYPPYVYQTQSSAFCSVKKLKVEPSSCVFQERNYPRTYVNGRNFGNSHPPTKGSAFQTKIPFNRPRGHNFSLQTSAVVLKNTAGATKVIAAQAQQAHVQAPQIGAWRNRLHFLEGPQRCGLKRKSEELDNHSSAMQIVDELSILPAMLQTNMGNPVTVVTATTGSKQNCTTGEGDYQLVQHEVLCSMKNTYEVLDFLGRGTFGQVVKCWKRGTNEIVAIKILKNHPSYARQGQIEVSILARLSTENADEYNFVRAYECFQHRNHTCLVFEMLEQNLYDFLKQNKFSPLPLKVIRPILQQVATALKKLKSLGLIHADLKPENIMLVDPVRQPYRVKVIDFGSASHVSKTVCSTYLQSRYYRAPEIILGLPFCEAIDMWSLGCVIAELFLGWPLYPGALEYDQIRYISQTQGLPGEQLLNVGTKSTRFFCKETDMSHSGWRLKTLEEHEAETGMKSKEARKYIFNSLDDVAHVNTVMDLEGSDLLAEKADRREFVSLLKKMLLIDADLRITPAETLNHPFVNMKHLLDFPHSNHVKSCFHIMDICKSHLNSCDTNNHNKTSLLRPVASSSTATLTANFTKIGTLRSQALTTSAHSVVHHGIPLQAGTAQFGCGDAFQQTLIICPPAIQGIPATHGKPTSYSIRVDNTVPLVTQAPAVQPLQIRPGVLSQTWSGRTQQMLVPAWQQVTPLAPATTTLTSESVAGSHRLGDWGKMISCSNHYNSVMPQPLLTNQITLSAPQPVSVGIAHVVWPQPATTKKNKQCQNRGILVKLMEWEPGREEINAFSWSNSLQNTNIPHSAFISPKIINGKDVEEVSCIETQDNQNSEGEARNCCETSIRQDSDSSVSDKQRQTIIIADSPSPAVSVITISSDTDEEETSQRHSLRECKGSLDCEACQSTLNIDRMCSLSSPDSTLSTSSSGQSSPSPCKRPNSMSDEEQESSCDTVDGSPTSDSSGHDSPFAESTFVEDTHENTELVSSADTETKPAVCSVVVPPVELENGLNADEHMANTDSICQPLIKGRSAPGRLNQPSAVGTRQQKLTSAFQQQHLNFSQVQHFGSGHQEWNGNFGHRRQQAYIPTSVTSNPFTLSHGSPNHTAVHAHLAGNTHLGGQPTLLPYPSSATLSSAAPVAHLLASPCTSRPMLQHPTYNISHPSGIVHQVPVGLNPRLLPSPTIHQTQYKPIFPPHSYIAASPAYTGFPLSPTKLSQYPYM
T30 sequence (Q15759 whole entry): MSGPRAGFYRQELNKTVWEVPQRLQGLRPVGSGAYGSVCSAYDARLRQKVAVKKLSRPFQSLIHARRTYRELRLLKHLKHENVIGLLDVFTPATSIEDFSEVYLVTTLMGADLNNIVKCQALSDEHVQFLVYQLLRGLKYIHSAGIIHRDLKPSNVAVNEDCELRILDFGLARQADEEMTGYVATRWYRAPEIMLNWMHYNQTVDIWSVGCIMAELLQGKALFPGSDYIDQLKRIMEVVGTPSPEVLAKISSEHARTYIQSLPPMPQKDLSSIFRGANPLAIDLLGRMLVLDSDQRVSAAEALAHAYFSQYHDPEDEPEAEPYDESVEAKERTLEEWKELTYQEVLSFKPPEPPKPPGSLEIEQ

## CC(=O)Nc1nc2ccc(-c3cnc(C)c(NC(=O)OC4CCCCC4)c3)cc2s1 [PK68, cyclohexyl (5-(2-acetamidobenzo[d]thiazol-6-yl)-2-methylpyridin-3-yl)carbamate]
MEK1; 1 μM
  Activity%: 97.25%
MEK1
  activity at 1 µM: 99%
MEKK3; 1 μM
  Activity%: 111.45%
MEKK3
  activity at 1 µM: 115%
PLK4/SAK; 1 μM
  Activity%: 89.27%
PLK4/SAK
  activity at 1 µM: 91.8%
TNK1; 1 μM
  Activity%: 86.66%
TNK1
  activity at 1 µM: 87.9%
RSK4; 1 μM
  Activity%: 103.68%
RSK4
  activity at 1 µM: 105%
BLK; 1 μM
  Activity%: 93.58%
BLK
  activity at 1 µM: 95.4%
CK1d; 1 μM
  Activity%: 103.42%
CK1d
  activity at 1 µM: 105%
MEK5; 1 μM
  Activity%: 97.06%
MEK5
  activity at 1 µM: 97.5%
BRSK1; 1 μM
  Activity%: 101.25%
BRSK1
  activity at 1 µM: 102%
MNK2; 1 μM
  Activity%: 88.77%
MNK2
  activity at 1 µM: 90.5%
CDK17/cyclin Y (PCTK2); 1 μM
  Activity%: 77.31%
CDK17/cyclin Y (PCTK2)
  activity at 1 µM: 79%
RSK1; 1 μM
  Activity%: 98.15%
RSK1
  activity at 1 µM: 100%
TTBK2; 1 μM
  Activity%: 98.08%
TTBK2
  activity at 1 µM: 98.4%
MRCKa/CDC42BPA; 1 μM
  Activity%: 101.41%
MRCKa/CDC42BPA
  activity at 1 µM: 104%
TBK1; 1 μM
  Activity%: 96.55%
TBK1
  activity at 1 µM: 97%
AXL; 1 μM
  Activity%: 98.35%
AXL
  activity at 1 µM: 98.8%
DYRK3; 1 μM
  Activity%: 81.73%
DYRK3
  activity at 1 µM: 83%
GSK3a; 1 μM
  Activity%: 101.33%
GSK3a
  activity at 1 µM: 102%
PAK2; 1 μM
  Activity%: 104.24%
PAK2
  activity at 1 µM: 105%
STK21/CIT; 1 μM
  Activity%: 121.90%
STK21/CIT
  activity at 1 µM: 125%
LCK; 1 μM
  Activity%: 62.75%
LCK
  activity at 1 µM: 62.9%
FLT1/VEGFR1; 1 μM
  Activity%: 100.00%
FLT1/VEGFR1
  activity at 1 µM: 100%
ARK5/NUAK1; 1 μM
  Activity%: 98.37%
ARK5/NUAK1
  activity at 1 µM: 99.4%
MLK1/MAP3K9; 1 μM
  Activity%: 99.64%
MLK1/MAP3K9
  activity at 1 µM: 99.7%
PKAcb; 1 μM
  Activity%: 100.88%
PKAcb
  activity at 1 µM: 103%
IKKe/IKBKE; 1 μM
  Activity%: 92.74%
IKKe/IKBKE
  activity at 1 µM: 98.2%
LOK/STK10; 1 μM
  Activity%: 97.50%
LOK/STK10
  activity at 1 µM: 97.9%
RSK3; 1 μM
  Activity%: 96.49%
RSK3
  activity at 1 µM: 97.6%
KSR1; 1 μM
  Activity%: 101.02%
KSR1
  activity at 1 µM: 102%
P38b/MAPK11; 1 μM
  Activity%: 102.60%
P38b/MAPK11
  activity at 1 µM: 103%
BTK; 1 μM
  Activity%: 90.38%
BTK
  activity at 1 µM: 91.2%
WNK3; 1 μM
  Activity%: 106.32%
WNK3
  activity at 1 µM: 107%
HIPK3; 1 μM
  Activity%: 63.99%
HIPK3
  activity at 1 µM: 66.4%
